Laboratory results: ChEMBL document CHEMBL1782045, “Discovery, synthesis, and investigation of the antitumor activity of novel piperazinylpyrimidine derivatives” (Eur J Med Chem, 2011)

Columns and labels:
[1] = system: UACC-257; assay: Cytotoxicity against human UACC257 cells after 48 hrs by sulforhodamine B assay; format: cell-based; conditions: uacc-257, 48 h
[2] = system: UACC-62; assay: Cytotoxicity against human UACC62 cells after 48 hrs by sulforhodamine B assay; format: cell-based; conditions: uacc-62, 48 h
[3] = system: A498; assay: Cytotoxicity against human A498 cells after 48 hrs by sulforhodamine B assay; format: cell-based; conditions: a498, 48 h
[4] = system: MDA-MB-231; assay: Cytotoxicity against human MDA-MB-231 cells after 48 hrs by sulforhodamine B assay; format: cell-based; conditions: mda-mb-231, 48 h
[5] = biological target: Casein kinase I isoform alpha (Homo sapiens) (UniProt P48729); assay: Binding affinity to human CSNK1A1 at 10 uM incubated for 1 hr by kinase binding assay relative to untreated control
[6] = biological target: Casein kinase I isoform epsilon (Homo sapiens) (UniProt P49674); assay: Binding affinity to human CSNK1E at 10 uM incubated for 1 hr by kinase binding assay relative to untreated control
[7] = biological target: Epithelial discoidin domain-containing receptor 1 (Homo sapiens) (UniProt Q08345); assay: Binding affinity to human DDR1 at 10 uM incubated for 1 hr by kinase binding assay relative to untreated control
[8] = system: COLO 205; assay: Growth inhibition of human COLO205 cells after 48 hrs by sulforhodamine B assay; format: functional; conditions: COLO 205, 48 h
[9] = system: SF-539; assay: Growth inhibition of human SF539 cells after 48 hrs by sulforhodamine B assay; format: functional; conditions: SF-539, 48 h
[10] = system: OVCAR-3; assay: Growth inhibition of human OVCAR3 cells after 48 hrs by sulforhodamine B assay; format: functional; conditions: OVCAR-3, 48 h
[11] = system: SK-OV-3; assay: Growth inhibition of human SKOV3 cells after 48 hrs by sulforhodamine B assay; format: functional; conditions: SK-OV-3, 48 h
[12] = system: 786-0; assay: Growth inhibition of human 786-0 cells after 48 hrs by sulforhodamine B assay; format: functional; conditions: 786-0, 48 h
[13] = system: T1, Receptor-type tyrosine-protein kinase FLT3 (Homo sapiens), P36888 [K663Q]; assay: Binding affinity to human FLT3 K663Q mutant at 10 uM incubated for 1 hr by kinase binding assay relative to untreated control
T1 sequence (whole entry): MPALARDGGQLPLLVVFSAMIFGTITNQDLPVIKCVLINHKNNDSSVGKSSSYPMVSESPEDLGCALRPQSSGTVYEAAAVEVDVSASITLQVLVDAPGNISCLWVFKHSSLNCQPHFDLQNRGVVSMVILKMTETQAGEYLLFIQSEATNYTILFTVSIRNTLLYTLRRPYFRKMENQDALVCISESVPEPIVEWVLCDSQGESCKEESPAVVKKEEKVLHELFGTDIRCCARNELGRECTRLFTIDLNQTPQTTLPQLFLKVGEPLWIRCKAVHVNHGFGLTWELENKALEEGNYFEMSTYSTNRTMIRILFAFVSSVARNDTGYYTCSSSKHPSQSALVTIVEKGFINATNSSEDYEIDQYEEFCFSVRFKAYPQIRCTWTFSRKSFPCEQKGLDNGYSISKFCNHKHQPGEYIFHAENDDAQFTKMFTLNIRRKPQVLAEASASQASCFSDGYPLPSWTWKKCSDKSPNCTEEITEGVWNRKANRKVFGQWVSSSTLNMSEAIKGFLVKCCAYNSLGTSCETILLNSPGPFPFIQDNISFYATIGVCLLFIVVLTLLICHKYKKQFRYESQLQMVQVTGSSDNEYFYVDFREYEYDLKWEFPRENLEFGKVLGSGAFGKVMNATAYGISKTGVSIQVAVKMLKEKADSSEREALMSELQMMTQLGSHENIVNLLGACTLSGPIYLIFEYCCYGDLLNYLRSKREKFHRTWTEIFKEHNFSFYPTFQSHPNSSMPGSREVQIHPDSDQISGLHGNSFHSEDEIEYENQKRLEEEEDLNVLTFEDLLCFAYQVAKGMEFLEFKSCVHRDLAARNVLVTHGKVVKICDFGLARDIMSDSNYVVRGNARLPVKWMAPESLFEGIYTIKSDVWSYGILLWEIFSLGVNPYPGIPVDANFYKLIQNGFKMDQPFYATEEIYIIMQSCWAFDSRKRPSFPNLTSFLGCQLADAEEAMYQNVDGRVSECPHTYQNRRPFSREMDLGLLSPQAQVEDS

[14] = system: Mast/stem cell growth factor receptor Kit (Homo sapiens), P10721 [D816H]; assay: Binding affinity to human KIT D816H mutant at 10 uM incubated for 1 hr by kinase binding assay relative to untreated control
[15] = biological target: Platelet-derived growth factor receptor beta (Homo sapiens) (UniProt P09619); assay: Binding affinity to human PDGFRB at 10 uM incubated for 1 hr by kinase binding assay relative to untreated control
[16] = system: RXF 393; assay: Growth inhibition of human RXF393 cells after 48 hrs by sulforhodamine B assay; format: functional; conditions: RXF 393, 48 h
[17] = system: RPMI-8226; assay: Cytotoxicity against human RPMI8226 cells after 48 hrs by sulforhodamine B assay; format: cell-based; conditions: rpmi-8226, 48 h
[18] = biological target: Tyrosine-protein kinase ABL1 (Homo sapiens) (UniProt P00519); assay: Inhibition of human ABL using gamma-33P-ATP as substrate assessed as enzyme functional activity at 1 uM by scintillation counting relative to untreated control; set-up: scale not given: the % may be the effect or the level left
[19] = biological target: Receptor-type tyrosine-protein kinase FLT3 (Homo sapiens) (UniProt P36888); assay: Inhibition of human FLT3 using gamma-33P-ATP as substrate assessed as enzyme functional activity at 1 uM by scintillation counting relative to untreated control; set-up: scale not given: the % may be the effect or the level left
[20] = biological target: Hepatocyte growth factor receptor (Homo sapiens, UniProt P08581); assay: Inhibition of human MET using gamma-33P-ATP as substrate assessed as enzyme functional activity at 1 uM by scintillation counting relative to untreated control; set-up: scale not given: the % may be the effect or the level left
[21] = system: NCI-H23; assay: Cytotoxicity against human NCI-H23 cells after 48 hrs by sulforhodamine B assay; format: cell-based; conditions: nci-h23, 48 h
[22] = system: HCT-15; assay: Cytotoxicity against human HCT15 cells after 48 hrs by sulforhodamine B assay; format: cell-based; conditions: hct-15, 48 h
[23] = system: Platelet-derived growth factor receptor alpha (Homo sapiens), P16234 [V561D]; assay: Inhibition of human PDGFRA V561D using gamma-33P-ATP as substrate assessed as enzyme functional activity at 1 uM by scintillation counting relative to untreated control; set-up: scale not given: the % may be the effect or the level left
[24] = system: KM12; assay: Cytotoxicity against human KM12 cells after 48 hrs by sulforhodamine B assay; format: cell-based; conditions: km12, 48 h
[25] = system: Malme-3M; assay: Cytotoxicity against human MALME-3M cells after 48 hrs by sulforhodamine B assay; format: cell-based

Sequence of Tyrosine-protein kinase ABL1 (Homo sapiens) (P00519 whole entry): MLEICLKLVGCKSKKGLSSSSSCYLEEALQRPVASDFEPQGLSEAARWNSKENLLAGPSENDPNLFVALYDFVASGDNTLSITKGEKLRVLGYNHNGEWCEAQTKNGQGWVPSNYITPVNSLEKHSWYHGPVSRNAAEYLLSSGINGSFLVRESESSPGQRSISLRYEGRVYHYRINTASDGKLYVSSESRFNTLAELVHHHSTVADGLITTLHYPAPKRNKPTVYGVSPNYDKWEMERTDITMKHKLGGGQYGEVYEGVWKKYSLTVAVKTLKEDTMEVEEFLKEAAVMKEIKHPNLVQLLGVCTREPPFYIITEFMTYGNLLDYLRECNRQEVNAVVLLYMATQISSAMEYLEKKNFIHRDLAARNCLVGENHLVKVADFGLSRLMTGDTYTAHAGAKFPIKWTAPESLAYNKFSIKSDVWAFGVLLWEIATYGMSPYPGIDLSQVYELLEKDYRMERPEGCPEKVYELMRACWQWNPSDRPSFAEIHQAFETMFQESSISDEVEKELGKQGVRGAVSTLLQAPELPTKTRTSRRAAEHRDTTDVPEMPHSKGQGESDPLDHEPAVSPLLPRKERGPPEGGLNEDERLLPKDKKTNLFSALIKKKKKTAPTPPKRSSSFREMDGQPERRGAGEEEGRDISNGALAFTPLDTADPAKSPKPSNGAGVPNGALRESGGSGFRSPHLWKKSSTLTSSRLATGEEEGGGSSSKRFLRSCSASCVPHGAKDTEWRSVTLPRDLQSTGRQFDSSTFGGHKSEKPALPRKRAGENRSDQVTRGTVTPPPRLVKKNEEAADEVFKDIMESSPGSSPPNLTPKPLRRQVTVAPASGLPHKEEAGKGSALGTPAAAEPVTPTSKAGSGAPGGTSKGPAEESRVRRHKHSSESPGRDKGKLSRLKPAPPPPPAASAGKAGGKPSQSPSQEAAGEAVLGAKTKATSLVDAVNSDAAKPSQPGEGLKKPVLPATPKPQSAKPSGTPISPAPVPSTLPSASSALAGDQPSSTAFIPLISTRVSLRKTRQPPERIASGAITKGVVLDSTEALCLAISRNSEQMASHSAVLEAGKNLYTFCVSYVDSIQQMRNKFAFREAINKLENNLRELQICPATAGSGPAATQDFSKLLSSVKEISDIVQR
Sequence of Epithelial discoidin domain-containing receptor 1 (Homo sapiens) (Q08345 whole entry, the tested form may be a part): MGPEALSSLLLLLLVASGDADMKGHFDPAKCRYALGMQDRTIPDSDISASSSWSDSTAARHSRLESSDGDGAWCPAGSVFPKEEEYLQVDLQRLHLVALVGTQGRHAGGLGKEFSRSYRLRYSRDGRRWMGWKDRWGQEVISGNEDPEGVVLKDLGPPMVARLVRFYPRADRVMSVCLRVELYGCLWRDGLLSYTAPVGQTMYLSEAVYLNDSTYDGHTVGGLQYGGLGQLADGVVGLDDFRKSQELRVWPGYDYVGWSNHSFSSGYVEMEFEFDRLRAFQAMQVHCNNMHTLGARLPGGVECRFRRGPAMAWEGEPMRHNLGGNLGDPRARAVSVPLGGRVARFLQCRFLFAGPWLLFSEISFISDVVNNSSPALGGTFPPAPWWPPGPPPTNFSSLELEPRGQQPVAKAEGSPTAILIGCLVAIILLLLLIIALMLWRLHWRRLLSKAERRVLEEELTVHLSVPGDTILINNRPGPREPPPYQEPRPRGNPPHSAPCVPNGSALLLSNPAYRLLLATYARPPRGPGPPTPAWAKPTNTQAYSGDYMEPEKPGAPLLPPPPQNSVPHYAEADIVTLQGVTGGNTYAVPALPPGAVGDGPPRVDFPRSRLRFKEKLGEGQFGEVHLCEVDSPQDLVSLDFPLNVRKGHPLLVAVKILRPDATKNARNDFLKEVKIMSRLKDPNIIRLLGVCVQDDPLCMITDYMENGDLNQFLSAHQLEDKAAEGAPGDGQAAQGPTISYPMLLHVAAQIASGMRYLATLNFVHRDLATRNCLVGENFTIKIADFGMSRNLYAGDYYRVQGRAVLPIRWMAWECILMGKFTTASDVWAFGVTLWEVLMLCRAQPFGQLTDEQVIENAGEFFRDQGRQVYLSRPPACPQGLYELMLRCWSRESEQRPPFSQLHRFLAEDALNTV
Sequence of Casein kinase I isoform epsilon (Homo sapiens) (P49674 whole entry, looked up, the tested form may be a part, canonical isoform): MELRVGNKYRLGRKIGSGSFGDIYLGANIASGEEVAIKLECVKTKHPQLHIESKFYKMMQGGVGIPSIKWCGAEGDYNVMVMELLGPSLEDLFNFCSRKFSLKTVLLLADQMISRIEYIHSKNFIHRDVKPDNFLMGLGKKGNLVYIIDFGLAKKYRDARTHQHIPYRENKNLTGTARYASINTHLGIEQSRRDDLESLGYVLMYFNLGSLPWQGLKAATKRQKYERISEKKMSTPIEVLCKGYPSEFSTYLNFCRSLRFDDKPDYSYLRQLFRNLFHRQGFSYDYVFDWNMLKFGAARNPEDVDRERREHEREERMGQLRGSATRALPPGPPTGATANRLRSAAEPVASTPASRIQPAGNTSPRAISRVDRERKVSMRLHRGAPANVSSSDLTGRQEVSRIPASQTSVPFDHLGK
Sequence of Hepatocyte growth factor receptor (P08581 whole entry): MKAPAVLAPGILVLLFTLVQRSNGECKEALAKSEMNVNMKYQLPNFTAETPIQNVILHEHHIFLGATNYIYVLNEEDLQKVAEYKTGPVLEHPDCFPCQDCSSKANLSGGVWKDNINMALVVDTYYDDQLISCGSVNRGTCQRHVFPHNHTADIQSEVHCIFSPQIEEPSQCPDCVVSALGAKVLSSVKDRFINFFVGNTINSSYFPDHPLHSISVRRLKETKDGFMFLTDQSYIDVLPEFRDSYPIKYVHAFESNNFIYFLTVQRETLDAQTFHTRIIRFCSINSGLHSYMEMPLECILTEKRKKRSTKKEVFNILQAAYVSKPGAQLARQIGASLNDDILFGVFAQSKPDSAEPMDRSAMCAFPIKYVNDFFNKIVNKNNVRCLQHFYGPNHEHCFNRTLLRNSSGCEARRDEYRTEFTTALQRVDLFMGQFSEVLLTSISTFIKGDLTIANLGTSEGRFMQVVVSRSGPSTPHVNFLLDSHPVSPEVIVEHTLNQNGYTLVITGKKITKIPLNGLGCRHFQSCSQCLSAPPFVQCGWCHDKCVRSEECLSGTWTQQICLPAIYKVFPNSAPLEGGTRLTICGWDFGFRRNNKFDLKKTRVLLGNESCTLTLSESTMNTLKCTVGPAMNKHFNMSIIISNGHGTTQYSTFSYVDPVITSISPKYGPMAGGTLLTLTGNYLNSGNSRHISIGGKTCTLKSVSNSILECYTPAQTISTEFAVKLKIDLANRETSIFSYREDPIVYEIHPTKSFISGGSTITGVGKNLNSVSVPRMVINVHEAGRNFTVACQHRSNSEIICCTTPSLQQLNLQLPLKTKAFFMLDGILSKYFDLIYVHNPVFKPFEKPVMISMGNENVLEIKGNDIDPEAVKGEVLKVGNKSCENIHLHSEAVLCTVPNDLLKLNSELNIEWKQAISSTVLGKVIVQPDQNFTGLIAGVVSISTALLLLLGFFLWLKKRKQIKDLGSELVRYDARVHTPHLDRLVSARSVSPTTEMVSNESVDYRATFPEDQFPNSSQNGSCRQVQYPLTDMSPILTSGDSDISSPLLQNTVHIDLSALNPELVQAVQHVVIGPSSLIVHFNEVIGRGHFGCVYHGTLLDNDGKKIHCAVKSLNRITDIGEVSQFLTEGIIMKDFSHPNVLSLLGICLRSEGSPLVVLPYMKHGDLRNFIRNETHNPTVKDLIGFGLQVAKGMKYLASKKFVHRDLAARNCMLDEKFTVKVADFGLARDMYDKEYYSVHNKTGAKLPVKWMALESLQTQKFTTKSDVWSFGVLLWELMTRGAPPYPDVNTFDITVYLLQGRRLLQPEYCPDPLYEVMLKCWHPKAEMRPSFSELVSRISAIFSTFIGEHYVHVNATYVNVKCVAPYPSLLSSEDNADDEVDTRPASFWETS
Sequence of Mast/stem cell growth factor receptor Kit (Homo sapiens), P10721 [D816H] (P10721 whole entry D816H): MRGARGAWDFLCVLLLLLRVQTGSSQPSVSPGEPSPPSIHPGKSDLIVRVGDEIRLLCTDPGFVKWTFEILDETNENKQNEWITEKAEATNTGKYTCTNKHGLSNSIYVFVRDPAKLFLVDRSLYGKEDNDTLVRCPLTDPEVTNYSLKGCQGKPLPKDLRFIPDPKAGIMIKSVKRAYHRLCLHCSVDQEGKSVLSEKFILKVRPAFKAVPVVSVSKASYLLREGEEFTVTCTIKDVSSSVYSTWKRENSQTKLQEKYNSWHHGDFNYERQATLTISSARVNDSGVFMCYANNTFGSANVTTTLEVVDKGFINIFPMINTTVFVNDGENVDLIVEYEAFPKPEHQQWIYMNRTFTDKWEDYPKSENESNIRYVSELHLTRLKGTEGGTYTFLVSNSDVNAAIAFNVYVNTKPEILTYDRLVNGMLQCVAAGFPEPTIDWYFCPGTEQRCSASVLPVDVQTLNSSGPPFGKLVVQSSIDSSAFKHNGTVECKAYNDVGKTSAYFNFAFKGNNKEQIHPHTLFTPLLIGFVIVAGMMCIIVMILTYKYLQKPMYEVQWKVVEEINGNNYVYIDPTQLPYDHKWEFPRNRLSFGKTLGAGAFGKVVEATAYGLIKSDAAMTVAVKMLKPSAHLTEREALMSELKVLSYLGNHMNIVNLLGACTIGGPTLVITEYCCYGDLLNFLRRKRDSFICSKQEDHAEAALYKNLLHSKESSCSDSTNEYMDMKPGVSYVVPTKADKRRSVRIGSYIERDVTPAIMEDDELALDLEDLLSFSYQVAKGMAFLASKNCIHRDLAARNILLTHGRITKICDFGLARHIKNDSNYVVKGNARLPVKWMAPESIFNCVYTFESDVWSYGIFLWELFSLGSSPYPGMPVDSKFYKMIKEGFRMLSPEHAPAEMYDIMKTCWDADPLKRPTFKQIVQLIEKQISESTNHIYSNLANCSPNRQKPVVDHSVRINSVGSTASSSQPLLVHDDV

SMILES	LC50 [1]	LC50 [2]	LC50 [3]	LC50 [4]	Activity [5]	Activity [6]	Activity [7]	TGI [8]	TGI [9]	TGI [10]	TGI [11]	TGI [12]	Activity [13]	Activity [14]	Activity [15]	TGI [16]	LC50 [17]	Activity [18]	Activity [19]	Activity [20]	also measured
O=C(c1cccc(Nc2ncnc3ccccc23)c1)N1CCN(c2ncc(Cc3ccccc3)cn2)CC1	5.37 µM	5.37 µM	> 100 µM	> 100 µM	> 50%	23%	28%	2.75 µM	4.9 µM	8.13 µM	4.47 µM	6.61 µM	> 50%	> 50%	> 50%	11.5 µM	3.89 µM	87%	95%	100%	LC50 [21]: 6.92 µM; LC50 [22]: 9.33 µM; Activity [23]: 100%; LC50 [24]: 6.61 µM; LC50 [25]: 5.25 µM
c1ccc(Cc2cnc(N3CCN(c4ncnc5ccccc45)CC3)nc2)cc1	41.4 µM	63.1 µM	50.1 µM	92.8 µM	> 50%	45%	47%	> 100 µM	28.5 µM	23.2 µM	> 100 µM	36.7 µM	4%	30%	4.1%	57.9 µM	97.3 µM	92%	74%	75%	LC50 [21]: > 100 µM; LC50 [22]: > 100 µM; Activity [23]: 20%; LC50 [24]: 50.1 µM; LC50 [25]: 89.2 µM
CCc1cnc(N2CCN(C(=O)c3ccc(CNc4ncnc5ccccc45)cc3)CC2)nc1	> 100 µM	> 100 µM	> 100 µM	> 100 µM	36%	29%	> 50%	38.2 µM	> 100 µM	> 100 µM	> 100 µM	54.8 µM	> 50%	> 50%	> 50%	41.6 µM	> 100 µM	80%	80%	100%	LC50 [21]: > 100 µM; LC50 [22]: > 100 µM; Activity [23]: 100%; LC50 [24]: 53.8 µM; LC50 [25]: > 100 µM
